Data: ChEMBL document CHEMBL3132769, “Fragment growing to retain or alter the selectivity of anchored kinase hinge-binding fragments” (Medchemcomm, 2014)

Key:
[1] = target: T1, Serine/threonine-protein kinase 3 (Homo sapiens) (UniProt Q13188); assay: Inhibition of human full length MST2 expressed in baculovirus assessed as substrate phosphorylation using fluorescence-labelled peptides as substrate at 0.06 uM after 90 mins by microfluidic peptide phosphorylation assay
T1 sequence (whole entry): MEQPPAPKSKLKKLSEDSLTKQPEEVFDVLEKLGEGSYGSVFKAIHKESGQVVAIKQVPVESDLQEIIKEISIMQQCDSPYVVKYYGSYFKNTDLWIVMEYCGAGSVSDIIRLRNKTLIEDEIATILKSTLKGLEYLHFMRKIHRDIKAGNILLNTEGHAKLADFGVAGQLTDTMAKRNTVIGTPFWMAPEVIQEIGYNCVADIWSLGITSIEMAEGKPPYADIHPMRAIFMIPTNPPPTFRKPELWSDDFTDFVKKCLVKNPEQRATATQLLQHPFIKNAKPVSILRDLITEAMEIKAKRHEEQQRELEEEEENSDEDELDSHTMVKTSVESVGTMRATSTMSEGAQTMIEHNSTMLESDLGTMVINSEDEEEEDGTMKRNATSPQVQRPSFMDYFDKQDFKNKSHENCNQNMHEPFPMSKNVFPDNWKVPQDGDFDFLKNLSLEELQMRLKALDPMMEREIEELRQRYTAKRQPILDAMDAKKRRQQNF

[2] = target: Tyrosine-protein kinase Lyn (Homo sapiens) (UniProt P07948); assay: Inhibition of human full length LYN expressed in baculovirus assessed as substrate phosphorylation using fluorescence-labelled peptides as substrate at 0.06 uM after 90 mins by microfluidic peptide phosphorylation assay
Chain of Tyrosine-protein kinase Lyn (Homo sapiens) (P07948 2-512 limits assumed): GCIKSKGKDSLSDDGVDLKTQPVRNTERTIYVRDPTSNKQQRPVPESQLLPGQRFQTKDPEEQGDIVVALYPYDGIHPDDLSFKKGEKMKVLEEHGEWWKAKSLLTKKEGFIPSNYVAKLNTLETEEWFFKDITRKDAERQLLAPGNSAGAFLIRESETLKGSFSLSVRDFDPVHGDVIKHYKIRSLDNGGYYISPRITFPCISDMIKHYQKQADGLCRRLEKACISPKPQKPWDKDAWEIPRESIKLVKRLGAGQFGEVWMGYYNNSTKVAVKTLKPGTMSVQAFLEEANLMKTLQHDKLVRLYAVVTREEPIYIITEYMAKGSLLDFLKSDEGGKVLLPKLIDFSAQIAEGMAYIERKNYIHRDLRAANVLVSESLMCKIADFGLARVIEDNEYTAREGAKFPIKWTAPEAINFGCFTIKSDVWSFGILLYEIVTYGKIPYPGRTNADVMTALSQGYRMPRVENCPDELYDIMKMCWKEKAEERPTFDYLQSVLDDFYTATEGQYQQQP

[3] = target: Tyrosine-protein kinase ABL2 (Homo sapiens) (UniProt P42684); assay: Inhibition of human truncated Arg expressed in baculovirus assessed as substrate phosphorylation using fluorescence-labelled peptides as substrate at 0.2 uM after 90 mins by microfluidic peptide phosphorylation assay
Chain of Tyrosine-protein kinase ABL2 (Homo sapiens) (P42684 whole entry, the tested form may be a part): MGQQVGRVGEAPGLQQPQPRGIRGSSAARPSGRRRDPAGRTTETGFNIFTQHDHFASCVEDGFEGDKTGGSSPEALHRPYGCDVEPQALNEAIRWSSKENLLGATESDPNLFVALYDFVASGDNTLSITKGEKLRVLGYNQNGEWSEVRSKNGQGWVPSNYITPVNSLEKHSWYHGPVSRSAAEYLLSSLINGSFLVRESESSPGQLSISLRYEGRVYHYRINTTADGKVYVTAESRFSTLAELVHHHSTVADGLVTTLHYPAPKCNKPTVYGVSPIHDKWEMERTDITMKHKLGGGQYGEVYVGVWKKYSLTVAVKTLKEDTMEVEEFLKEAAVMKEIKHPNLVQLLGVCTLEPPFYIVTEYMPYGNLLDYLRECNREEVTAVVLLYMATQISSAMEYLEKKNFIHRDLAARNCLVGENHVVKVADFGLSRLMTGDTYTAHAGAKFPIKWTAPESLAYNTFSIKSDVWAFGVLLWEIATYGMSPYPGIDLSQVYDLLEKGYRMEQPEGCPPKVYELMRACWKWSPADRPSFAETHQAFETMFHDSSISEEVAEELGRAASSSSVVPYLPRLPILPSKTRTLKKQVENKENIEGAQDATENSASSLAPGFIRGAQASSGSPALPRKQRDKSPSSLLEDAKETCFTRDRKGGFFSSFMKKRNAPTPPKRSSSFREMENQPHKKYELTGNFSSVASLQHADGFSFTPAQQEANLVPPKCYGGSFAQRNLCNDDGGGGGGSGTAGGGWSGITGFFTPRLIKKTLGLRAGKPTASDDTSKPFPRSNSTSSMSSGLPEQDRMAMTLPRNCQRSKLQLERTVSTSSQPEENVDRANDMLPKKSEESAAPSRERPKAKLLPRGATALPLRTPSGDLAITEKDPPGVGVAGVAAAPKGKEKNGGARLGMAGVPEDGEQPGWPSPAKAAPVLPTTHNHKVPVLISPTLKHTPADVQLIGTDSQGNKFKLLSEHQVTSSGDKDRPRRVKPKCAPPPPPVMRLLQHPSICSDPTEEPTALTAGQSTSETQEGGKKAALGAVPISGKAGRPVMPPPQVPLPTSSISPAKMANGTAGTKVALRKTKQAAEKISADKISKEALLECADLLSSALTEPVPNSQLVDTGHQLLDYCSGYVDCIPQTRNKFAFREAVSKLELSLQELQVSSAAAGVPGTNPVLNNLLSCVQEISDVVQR

[4] = target: Ribosomal protein S6 kinase alpha-1 (Homo sapiens) (UniProt Q15418); assay: Inhibition of human full length RSK1 expressed in baculovirus assessed as substrate phosphorylation using fluorescence-labelled peptides as substrate at […] after 90 mins by microfluidic peptide phosphorylation assay
Chain of Ribosomal protein S6 kinase alpha-1 (Homo sapiens) (Q15418 whole entry): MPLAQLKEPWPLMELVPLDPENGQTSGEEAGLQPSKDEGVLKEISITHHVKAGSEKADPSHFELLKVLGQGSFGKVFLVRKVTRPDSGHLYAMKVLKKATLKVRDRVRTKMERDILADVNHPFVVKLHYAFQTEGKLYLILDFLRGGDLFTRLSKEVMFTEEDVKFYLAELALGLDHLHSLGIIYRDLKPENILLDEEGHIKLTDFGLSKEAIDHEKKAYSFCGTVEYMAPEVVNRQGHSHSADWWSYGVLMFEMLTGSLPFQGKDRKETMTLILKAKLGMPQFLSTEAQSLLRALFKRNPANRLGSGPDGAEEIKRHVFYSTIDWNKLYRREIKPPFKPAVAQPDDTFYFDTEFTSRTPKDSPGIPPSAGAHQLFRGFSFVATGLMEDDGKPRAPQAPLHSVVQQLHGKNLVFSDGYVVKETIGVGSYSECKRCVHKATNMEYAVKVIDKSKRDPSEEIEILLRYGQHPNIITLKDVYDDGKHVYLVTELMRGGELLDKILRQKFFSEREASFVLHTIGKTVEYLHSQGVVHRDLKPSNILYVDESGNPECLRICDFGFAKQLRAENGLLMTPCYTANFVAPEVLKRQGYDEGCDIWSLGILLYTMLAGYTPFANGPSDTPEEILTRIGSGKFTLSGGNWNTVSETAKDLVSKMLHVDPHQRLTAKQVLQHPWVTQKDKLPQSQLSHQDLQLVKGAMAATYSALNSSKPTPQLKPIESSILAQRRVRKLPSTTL

[5] = target: T2, Mitogen-activated protein kinase 12 (Homo sapiens) (UniProt P53778); assay: Inhibition of human full length p38 gamma expressed in Escherichia coli cell assessed as substrate phosphorylation using fluorescence-labelled peptides as substrate at 0.1 uM after 90 mins by microfluidic peptide phosphorylation assay
T2 sequence (whole entry): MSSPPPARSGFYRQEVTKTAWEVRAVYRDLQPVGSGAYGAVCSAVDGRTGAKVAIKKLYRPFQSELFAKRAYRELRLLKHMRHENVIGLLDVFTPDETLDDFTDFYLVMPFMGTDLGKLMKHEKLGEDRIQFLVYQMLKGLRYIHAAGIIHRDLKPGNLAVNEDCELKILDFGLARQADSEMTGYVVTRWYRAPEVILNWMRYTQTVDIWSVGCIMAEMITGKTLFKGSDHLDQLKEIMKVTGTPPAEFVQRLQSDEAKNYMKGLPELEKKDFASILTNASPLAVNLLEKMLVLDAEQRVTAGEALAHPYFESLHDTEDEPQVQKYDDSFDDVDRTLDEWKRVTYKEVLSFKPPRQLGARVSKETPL

[6] = target: Serine/threonine-protein kinase MARK2 (Homo sapiens) (UniProt Q7KZI7); assay: Inhibition of human full length MARK2 expressed in baculovirus assessed as substrate phosphorylation using fluorescence-labelled peptides as substrate at 70 uM after 90 mins by microfluidic peptide phosphorylation assay
Chain of Serine/threonine-protein kinase MARK2 (Homo sapiens) (Q7KZI7 whole entry): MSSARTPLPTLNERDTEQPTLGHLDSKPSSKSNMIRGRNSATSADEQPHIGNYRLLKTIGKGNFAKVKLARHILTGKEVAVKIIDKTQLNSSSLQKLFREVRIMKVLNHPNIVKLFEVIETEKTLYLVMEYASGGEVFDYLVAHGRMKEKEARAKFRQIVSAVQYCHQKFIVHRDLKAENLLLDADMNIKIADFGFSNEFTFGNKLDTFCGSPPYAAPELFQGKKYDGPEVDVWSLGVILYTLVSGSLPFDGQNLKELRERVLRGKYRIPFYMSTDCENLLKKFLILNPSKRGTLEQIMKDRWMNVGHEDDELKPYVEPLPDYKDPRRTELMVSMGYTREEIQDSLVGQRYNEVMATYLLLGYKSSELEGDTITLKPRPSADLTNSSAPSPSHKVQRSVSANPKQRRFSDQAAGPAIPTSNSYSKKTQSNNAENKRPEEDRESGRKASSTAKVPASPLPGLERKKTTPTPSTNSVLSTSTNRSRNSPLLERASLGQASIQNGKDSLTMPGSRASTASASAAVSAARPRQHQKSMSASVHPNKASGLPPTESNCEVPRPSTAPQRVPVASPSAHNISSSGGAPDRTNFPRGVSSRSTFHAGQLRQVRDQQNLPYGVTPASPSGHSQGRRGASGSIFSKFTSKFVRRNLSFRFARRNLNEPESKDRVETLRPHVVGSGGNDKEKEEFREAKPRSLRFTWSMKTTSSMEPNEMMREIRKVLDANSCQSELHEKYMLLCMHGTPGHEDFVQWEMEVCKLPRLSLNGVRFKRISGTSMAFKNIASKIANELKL

[7] = target: T3, Serine/threonine-protein kinase Chk1 (Homo sapiens) (UniProt O14757); assay: Inhibition of human full length CHK1 expressed in baculovirus assessed as substrate phosphorylation using fluorescence-labelled peptides as substrate at 95 uM after 90 mins by microfluidic peptide phosphorylation assay
T3 sequence (whole entry): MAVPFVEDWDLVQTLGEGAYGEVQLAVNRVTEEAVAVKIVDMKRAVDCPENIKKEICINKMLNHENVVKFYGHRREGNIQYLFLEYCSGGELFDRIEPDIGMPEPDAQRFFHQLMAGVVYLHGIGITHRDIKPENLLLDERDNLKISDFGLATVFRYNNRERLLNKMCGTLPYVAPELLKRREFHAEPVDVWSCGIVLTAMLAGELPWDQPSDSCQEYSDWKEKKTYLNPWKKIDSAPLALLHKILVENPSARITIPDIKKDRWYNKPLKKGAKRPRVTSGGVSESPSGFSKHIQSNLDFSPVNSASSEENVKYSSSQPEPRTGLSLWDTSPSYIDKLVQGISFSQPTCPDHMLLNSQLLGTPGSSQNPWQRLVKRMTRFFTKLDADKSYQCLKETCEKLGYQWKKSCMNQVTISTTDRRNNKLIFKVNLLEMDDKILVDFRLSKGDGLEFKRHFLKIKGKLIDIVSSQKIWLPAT

[8] = target: Protein kinase C gamma type (Homo sapiens) (UniProt P05129); assay: Inhibition of human truncated PKC gamma expressed in baculovirus assessed as substrate phosphorylation using fluorescence-labelled peptides as substrate at 8 uM after 90 mins by microfluidic peptide phosphorylation assay
[9] = target: T4, cGMP-dependent protein kinase 1 (Homo sapiens) (UniProt Q13976); assay: Inhibition of human full length PKG-1beta expressed in baculovirus assessed as substrate phosphorylation using fluorescence-labelled peptides as substrate at 2 uM after 90 mins by microfluidic peptide phosphorylation assay
T4 sequence (whole entry): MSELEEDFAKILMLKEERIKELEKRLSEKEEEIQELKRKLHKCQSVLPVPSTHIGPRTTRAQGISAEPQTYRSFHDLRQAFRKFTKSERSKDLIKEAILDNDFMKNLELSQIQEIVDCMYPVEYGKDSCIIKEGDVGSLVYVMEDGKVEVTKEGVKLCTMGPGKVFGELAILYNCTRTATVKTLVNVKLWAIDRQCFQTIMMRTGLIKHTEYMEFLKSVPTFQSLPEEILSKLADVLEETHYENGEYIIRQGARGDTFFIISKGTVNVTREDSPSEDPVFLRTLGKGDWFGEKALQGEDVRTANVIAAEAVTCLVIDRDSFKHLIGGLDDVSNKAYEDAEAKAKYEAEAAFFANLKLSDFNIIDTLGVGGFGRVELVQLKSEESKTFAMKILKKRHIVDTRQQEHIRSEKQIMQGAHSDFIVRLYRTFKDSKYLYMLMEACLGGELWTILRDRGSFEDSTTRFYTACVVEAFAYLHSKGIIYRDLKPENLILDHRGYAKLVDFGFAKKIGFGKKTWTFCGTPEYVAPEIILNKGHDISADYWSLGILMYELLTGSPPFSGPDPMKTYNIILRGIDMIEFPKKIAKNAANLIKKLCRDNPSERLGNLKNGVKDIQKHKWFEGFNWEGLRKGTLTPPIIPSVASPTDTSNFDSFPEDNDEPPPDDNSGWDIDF

[10] = target: Protein kinase C beta type (Homo sapiens) (UniProt P05771); assay: Inhibition of human full length PKC beta2 expressed in baculovirus assessed as substrate phosphorylation using fluorescence-labelled peptides as substrate at 2 uM after 90 mins by microfluidic peptide phosphorylation assay
Chain of Protein kinase C beta type (Homo sapiens) (P05771 2-671 limits assumed): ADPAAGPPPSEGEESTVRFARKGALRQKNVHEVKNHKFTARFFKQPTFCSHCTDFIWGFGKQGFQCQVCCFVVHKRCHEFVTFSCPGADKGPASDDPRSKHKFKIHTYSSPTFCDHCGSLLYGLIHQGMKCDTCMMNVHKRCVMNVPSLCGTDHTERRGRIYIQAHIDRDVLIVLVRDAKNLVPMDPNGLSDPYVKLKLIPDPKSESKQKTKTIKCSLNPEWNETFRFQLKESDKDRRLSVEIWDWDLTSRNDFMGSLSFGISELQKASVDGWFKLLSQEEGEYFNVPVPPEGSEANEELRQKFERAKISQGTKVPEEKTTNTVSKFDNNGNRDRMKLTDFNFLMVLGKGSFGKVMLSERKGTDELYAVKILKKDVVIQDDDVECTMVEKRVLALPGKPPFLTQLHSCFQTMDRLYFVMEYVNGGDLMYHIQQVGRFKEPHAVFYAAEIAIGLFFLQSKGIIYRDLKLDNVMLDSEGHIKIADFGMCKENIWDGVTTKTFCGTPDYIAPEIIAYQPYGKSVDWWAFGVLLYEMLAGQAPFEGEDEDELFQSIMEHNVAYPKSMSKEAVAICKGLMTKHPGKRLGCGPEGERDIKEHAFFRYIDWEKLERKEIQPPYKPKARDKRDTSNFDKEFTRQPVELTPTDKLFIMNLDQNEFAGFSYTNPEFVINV

## NC1(Cc2ccc(Cl)cc2)CCN(c2ncnc3[nH]ccc23)CC1
[1]
  inhibition: 3%
[2]
  inhibition: 0%

## Clc1ccc(C2(c3ccc(-c4ncnc5[nH]cnc45)cc3)CCNCC2)cc1
[3]
  inhibition: 4.5%

## COC(=O)c1cnc(Nc2cnc(C#N)cn2)cc1NCC1CCNCC1
[4]
  inhibition: 37%

## C[C@H](CN(C)C)Oc1nc(Nc2cc3cccc(Cl)c3cn2)cnc1C#N
[5]
  inhibition: 5.5%

## CNCc1ccc(-c2ncnc3[nH]cnc23)cc1
[6]
  inhibition: 61%

## NCCc1ccc(-c2ncnc3[nH]cnc23)cc1
[7]
  inhibition: 75.5%

## NCC1CCN(c2ncnc3[nH]ccc23)CC1
[8]
  inhibition: 86%

## NC1CCN(c2ncnc3[nH]ccc23)CC1
[9]
  inhibition: 8.5%
[10]
  inhibition: 62.5%
